Experimental data: patent US20240158446A1, “CYCLIC COMPOUND HAVING SELECTIVE INHIBITORY ACTION ON KRAS OVER HRAS AND NRAS” (CHUGAI SEIYAKU KABUSHIKI KAISHA, priority 2021, published 2024)

What was measured:
[1] = target: GDP-bound HRAS wild-type protein (Homo sapiens, UniProt P01112); experiment: Binding to HRAS by surface plasmon resonance (SPR), Single Cycle Kinetics; settings: SPR; GDP-bound HRAS wild-type protein vs GDP-bound KRAS wild-type protein; KD ratio class
[2] = target: GDP-bound NRAS wild-type protein (Homo sapiens, UniProt P01111); experiment: Binding to NRAS by surface plasmon resonance (SPR), Single Cycle Kinetics; settings: SPR; GDP-bound NRAS wild-type protein vs GDP-bound KRAS wild-type protein; KD ratio class
[3] = target: GDP-bound KRAS wild-type protein (Homo sapiens, UniProt P01116); experiment: Binding to KRAS by surface plasmon resonance (SPR), Single Cycle Kinetics; settings: SPR, Single Cycle Kinetics, 1:1 binding model; GDP-bound KRAS wild-type protein; read-out: KRAS KD
Sequence of GDP-bound KRAS wild-type protein (P01116 whole entry): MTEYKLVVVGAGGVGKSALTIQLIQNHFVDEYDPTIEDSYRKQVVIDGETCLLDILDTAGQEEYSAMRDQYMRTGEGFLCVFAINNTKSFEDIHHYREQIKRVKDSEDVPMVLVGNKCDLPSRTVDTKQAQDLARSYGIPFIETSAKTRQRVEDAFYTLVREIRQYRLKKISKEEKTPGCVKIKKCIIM

Sequence of GDP-bound HRAS wild-type protein (P01112 whole entry): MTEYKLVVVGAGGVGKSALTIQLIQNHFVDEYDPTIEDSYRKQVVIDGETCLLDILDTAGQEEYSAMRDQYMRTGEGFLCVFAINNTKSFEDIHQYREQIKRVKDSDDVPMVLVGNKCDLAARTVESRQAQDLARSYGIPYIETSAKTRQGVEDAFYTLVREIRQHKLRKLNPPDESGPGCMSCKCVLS
Sequence of GDP-bound NRAS wild-type protein (P01111 whole entry): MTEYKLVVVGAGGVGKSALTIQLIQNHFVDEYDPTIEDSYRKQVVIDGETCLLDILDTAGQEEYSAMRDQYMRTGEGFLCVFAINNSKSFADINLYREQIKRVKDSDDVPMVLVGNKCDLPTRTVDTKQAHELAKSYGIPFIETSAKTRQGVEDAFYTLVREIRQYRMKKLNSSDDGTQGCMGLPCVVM

SMILES	HRAS/KRAS (ratio of KD value for HRAS to KD value for KRAS) [1]	NRAS/KRAS (ratio of KD value for NRAS to KD value for KRAS) [2]	Kd [3]
CCO[C@@H]1C[C@H]2C(=O)NC3(CCC3)C(=O)N(C)[C@@H](C3CCCC3)C(=O)N(C)[C@H](C(=O)N(C)CCOC)CC(=O)N(C)[C@@H](C)C(=O)N[C@@H]([C@@H](C)CC)C(=O)N(C)CC(=O)N(C)[C@H]3C/C=C\CCN(C3=O)[C@@H](Cc3ccc(C(F)(F)F)cc3)C(=O)N(C)CC(=O)N[C@@H](CCc3cc(F)c(C(F)(F)F)c(F)c3)C(=O)N2C1 [PP1319, (2S,8S,12R,14S,20S,23S,27S,30S,36S,38Z)-20-cyclopentyl-8-[2-[3,5-difluoro-4-(trifluoromethyl)phenyl]ethyl]-12-ethoxy-N-(2-methoxyethyl)-N,4,19,22,26,27,32,35-octamethyl-30-[(1S)-1-methylpropyl]-3,6,9,15,18,21,25,28,31,34,42-undecaoxo-2-[[4-(trifluoromethyl)phenyl]methyl]spiro[1,4,7,10,16,19,22,26,29,32,35-undecazatricyclo[34.5.1.0^10,14]dotetracont-38-ene-17,1′-cyclobutane]-23-carboxamide]	B (a compound having 3 or more and less than 10 is denoted as B)	A (a compound having 10 or more and less than 20 is denoted as A)	69 pM
CCO[C@@H]1C[C@H]2C(=O)NC3(CCC3)C(=O)N(C)[C@@H](C3CCCC3)C(=O)N(C)[C@H](C(=O)N(C)CCOC)CC(=O)N(C)[C@@H](CC(F)F)C(=O)N[C@@H]([C@@H](C)CC)C(=O)N(C)CC(=O)N(C)[C@H]3C/C=C\CCN(C3=O)[C@@H](Cc3ccc(C(F)(F)F)cc3)C(=O)N(C)CC(=O)N[C@@H](CCc3cc(F)c(C(F)(F)F)c(F)c3)C(=O)N2C1 [PP1320]	A (a compound having 10 or more and less than 20 is denoted as A)	A (a compound having 10 or more and less than 20 is denoted as A)	57 pM
CCO[C@@H]1C[C@H]2C(=O)NC3(CCC3)C(=O)N(C)[C@@H](C3CCCC3)C(=O)N(C)[C@H](C(=O)N(C)CCOC)CC(=O)N(C)[C@@H](CC)C(=O)N[C@@H]([C@@H](C)CC)C(=O)N(C)CC(=O)N(C)[C@H]3C/C=C\CCN(C3=O)[C@@H](Cc3ccc(C(F)(F)F)cc3)C(=O)N(C)CC(=O)N[C@@H](CCc3ccc(C(F)(F)F)c(OC)c3)C(=O)N2C1 [PP1321, (2S,8S,12R,14S,20S,23S,27S,30S,36S,38Z)-20-cyclopentyl-12-ethoxy-27-ethyl-N-(2-methoxyethyl)-8-[2-[3-methoxy-4-(trifluoromethyl)phenyl]ethyl]-N,4,19,22,26,32,35-heptamethyl-30-[(1S)-1-methylpropyl]-3,6,9,15,18,21,25,28,31,34,42-undecaoxo-2-[[4-(trifluoromethyl)phenyl]methyl]spiro[1,4,7,10,16,19,22,26,29,32,35-undecazatricyclo[34.5.1.0^10,14]dotetracont-38-ene-17,1′-cyclobutane]-23-carboxamide]	B (a compound having 3 or more and less than 10 is denoted as B)	A (a compound having 10 or more and less than 20 is denoted as A)	80 pM
CCO[C@@H]1C[C@H]2C(=O)NC3(CCC3)C(=O)N(C)[C@@H](C3CCCC3)C(=O)N(C)[C@H](C(=O)N(C)CCOC)CC(=O)N(C)[C@@H](CC)C(=O)N[C@@H]([C@@H](C)CC)C(=O)N(C)CC(=O)N(C)[C@H]3C/C=C\CCN(C3=O)[C@@H](Cc3ccc(C(F)(F)F)cc3)C(=O)N(C)CC(=O)N[C@@H](CCc3ccc4sccc4c3)C(=O)N2C1 [PP1322]	A (a compound having 10 or more and less than 20 is denoted as A)	A (a compound having 10 or more and less than 20 is denoted as A)	590 pM
CCO[C@@H]1C[C@H]2C(=O)NC3(CCC3)C(=O)N(C)[C@@H](C3CCCC3)C(=O)N(C)[C@H](C(=O)N(C)CCOC)CC(=O)N(C)[C@@H](CC(C)C)C(=O)N[C@@H]([C@@H](C)CC)C(=O)N(C)CC(=O)N(C)[C@H]3C/C=C\CCN(C3=O)[C@@H](Cc3ccc(C(F)(F)F)cc3)C(=O)N(C)CC(=O)N[C@@H](CCc3ccc(C(F)(F)F)c(OC)c3)C(=O)N2C1 [PP1324, (2S,8S,12R,14S,20S,23S,27S,30S,36S,38Z)-20-cyclopentyl-12-ethoxy-27-isobutyl-N-(2-methoxyethyl)-8-[2-[3-methoxy-4-(trifluoromethyl)phenyl]ethyl]-N,4,19,22,26,32,35-heptamethyl-30-[(1S)-1-methylpropyl]-3,6,9,15,18,21,25,28,31,34,42-undecaoxo-2-[[4-(trifluoromethyl)phenyl]methyl]spiro[1,4,7,10,16,19,22,26,29,32,35-undecazatricyclo[34.5.1.0^10,14]dotetracont-38-ene-17,1′-cyclobutane]-23-carboxamide]	A (a compound having 10 or more and less than 20 is denoted as A)	A (a compound having 10 or more and less than 20 is denoted as A)	93 pM
CCO[C@@H]1C[C@H]2C(=O)NC3(CCC3)C(=O)N(C)[C@@H](C3CCCC3)C(=O)N(C)[C@H](C(=O)N(C)CCOC)CC(=O)N(C)[C@@H](CC(C)C)C(=O)N[C@@H]([C@@H](C)CC)C(=O)N(C)CC(=O)N(C)[C@H]3C/C=C\CCN(C3=O)[C@@H](Cc3ccc(C(F)(F)F)cc3)C(=O)N(C)CC(=O)N[C@@H](CCc3ccc4sccc4c3)C(=O)N2C1 [PP1325]	A (a compound having 10 or more and less than 20 is denoted as A)	A (a compound having 10 or more and less than 20 is denoted as A)	550 pM
CCO[C@@H]1C[C@H]2C(=O)NC3(CCC3)C(=O)N(C)[C@@H](C3CCCC3)C(=O)N(C)[C@H](C(=O)N(C)CCOC)CC(=O)N(C)[C@@H](CC(C)C)C(=O)N[C@@H]([C@@H](C)CC)C(=O)N(C)CC(=O)N(C)[C@H]3C/C=C\CCN(C3=O)[C@@H](Cc3ccc(C(F)(F)F)cc3)C(=O)N(C)CC(=O)N[C@@H](CCc3ccc(Cl)c(Cl)c3)C(=O)N2C1 [PP1326]	A (a compound having 10 or more and less than 20 is denoted as A)	AA (a compound having 20 or more is denoted as AA)	270 pM
CCO[C@@H]1C[C@H]2C(=O)NC3(CCC3)C(=O)N(C)[C@@H](C3CCCC3)C(=O)N(C)[C@H](C(=O)N(C)CCOC)CC(=O)N(C)[C@@H](CC3CC3)C(=O)N[C@@H]([C@@H](C)CC)C(=O)N(C)CC(=O)N(C)[C@H]3C/C=C\CCN(C3=O)[C@@H](Cc3ccc(C(F)(F)F)cc3)C(=O)N(C)CC(=O)N[C@@H](CCc3ccc(C(F)(F)F)c(OC)c3)C(=O)N2C1 [PP1327]	A (a compound having 10 or more and less than 20 is denoted as A)	A (a compound having 10 or more and less than 20 is denoted as A)	110 pM
CCO[C@@H]1C[C@H]2C(=O)NC3(CCC3)C(=O)N(C)[C@@H](C3CCCC3)C(=O)N(C)[C@H](C(=O)N(C)CCOC)CC(=O)N(C)[C@@H](CC3CC3)C(=O)N[C@@H]([C@@H](C)CC)C(=O)N(C)CC(=O)N(C)[C@H]3C/C=C\CCN(C3=O)[C@@H](Cc3ccc(C(F)(F)F)cc3)C(=O)N(C)CC(=O)N[C@@H](CCc3ccc4sccc4c3)C(=O)N2C1 [PP1328]	A (a compound having 10 or more and less than 20 is denoted as A)	A (a compound having 10 or more and less than 20 is denoted as A)	560 pM
